This assay has as its target T1, human cannabinoid CB2 receptor (Homo sapiens, UniProt P34972).
T1 construct: expressed in transfected cells; host or cells: Saccharomyces cerevisiae strain MMY23 (cassette integrated at the ura3 locus, GPD promoter)
Nature of the assay: Cannabinoid CB2 receptor agonist activity in yeast cells (FDGlu fluorescence). The assay is classed as cell-based. The settings on record: for Emax: read-out: efficacy value (Emax) at the cloned human cannabinoid CB2 receptor. The method, then:
The cannabinoid CB2 receptor agonist activity of the compounds of formula (I) was determined in accordance with the following experimental method.
Yeast (Saccharomyces cerevisiae) cells expressing the human cannabinoid CB2 receptor were generated by integration of an expression cassette into the ura3 chromosomal locus of yeast strain MMY23. This cassette consisted of DNA sequence encoding the human CB2 receptor flanked by the yeast GPD promoter to the 5′ end of CB2 and a yeast transcriptional terminator sequence to the 3′ end of CB2. MMY23 expresses a yeast/mammalian chimeric G-protein alpha subunit in which the C-terminal 5 amino acids of Gpal are replaced with the C-terminal 5 amino acids of human Gαi3 (as described in Brown et al. (2000), Yeast 16:11-22).
Agonists were prepared as 10 mM stocks in DMSO. […] Agonist solutions in DMSO (1% final assay volume) were transferred into black, clear bottom, microtitre plates from NUNC (96- or 384-well). Cells were suspended at a density of 0.2 OD600/ml in SC media lacking histidine, uracil, tryptophan, adenine and leucine and supplemented with 10 mM 3-aminotriazole, 0.1M sodium phosphate pH 7.0, and […] fluorescein di-β-D-glucopyranoside (FDGlu). […] After incubation at 30° C. for 24 hours, fluorescence resulting from degradation of FDGlu to fluorescein due to exoglucanase, an endogenous yeast enzyme produced during agonist-stimulated cell growth, was determined using a Spectrofluor microtitre plate reader (Tecan; excitation wavelength: 485 nm; emission wavelength: 535 nm). Fluorescence was plotted against compound concentration and iteratively curve fitted using a four parameter fit to generate a concentration effect value. Efficacy (Emax) was calculated from the equation
Equieffective molar ratio (EMR) values were calculated from the equation

The mark [1] stands for this setting: Emax relative to HU210, yeast expressing human CB2.
The mark [2] stands for this setting: yeast (Saccharomyces cerevisiae) expressing human CB2, agonist, 30° C. for 24 hours, read-out: EC50 at the cloned human cannabinoid CB2 receptor.

pEC50: −log10 of the molar value. Structures can show the parent of a compound that is named as a salt. Where two headings read alike, the source gives them in different places.

T1 sequence (P34972 whole entry): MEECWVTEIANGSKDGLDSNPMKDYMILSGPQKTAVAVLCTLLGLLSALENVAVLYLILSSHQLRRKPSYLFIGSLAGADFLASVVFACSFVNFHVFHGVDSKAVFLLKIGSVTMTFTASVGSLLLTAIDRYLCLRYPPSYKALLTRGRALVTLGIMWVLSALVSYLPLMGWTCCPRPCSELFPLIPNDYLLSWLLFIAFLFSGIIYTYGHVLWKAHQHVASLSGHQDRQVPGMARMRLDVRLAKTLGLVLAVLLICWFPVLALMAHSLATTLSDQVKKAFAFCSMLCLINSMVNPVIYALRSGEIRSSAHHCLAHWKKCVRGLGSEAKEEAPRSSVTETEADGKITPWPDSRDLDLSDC

For the compound `Cc1ccc(Nc2cc(C(C)C)c(CNCC3CC3)cn2)cc1Cl` [Example 33, (3-Chloro-4-methyl-phenyl)-{5-[(cyclopropylmethyl-amino)-methyl]-4-isopropyl-pyridin-2-yl}-amine, compound with formic acid(1:1)], the pEC50 (commonly the negative decadic logarithm of the EC50, by convention in mol/L) is 6.00 to 6.52 and the Emax – broadly, the size of the effect at its maximum, as opposed to the concentration needed – was greater than 50%.

For `CC(C)c1cc(Nc2cccc(C(F)(F)F)c2)ncc1CNCC1CC1` [Example 30, {5-[(Cyclopropylmethyl-amino)-methyl]-4-isopropyl-pyridin-2-yl}-(3-trifluoromethyl-phenyl)-amine,compound with formic acid (1:1)], the pEC50 is 6.00 to 6.52 and the Emax is greater than 50%.

As to `CC(C)c1cc(Nc2cccc(Cl)c2)ncc1CNC(C)(C)C` [Example 65, [5-(tert-Butylamino-methyl)isopropyl-pyridin-2-yl]-(3-chloro-phenyl)amine dihydrochloride], the negative-log EC50 (pEC50) is 6.00 to 6.52 and the maximum response (Emax) is greater than 50%.

For `CC(C)c1cc(Nc2ccc(Cl)cc2F)ncc1CNCC1CCC1` [Example 25, (4-Chloro-2-fluoro-phenyl)-{5-[(cyclobutylmethyl-amino)-methyl]-4-isopropyl-pyridin-2-yl}-amine,compound with formic acid (1:1.67)], the Emax under setting [1] was greater than 50%. Further, under setting [2], the pEC50 is 6.00 to 6.52.

On to `CC(C)c1cc(Nc2cccc(Cl)c2)ncc1CNCC1CCCC1` [Example 50, (3-Chloro-phenyl)-{5-[(cyclopentylmethyl-amino)-methyl]-4-isopropyl-pyridin-2-yl}-amine, compound with formic acid(1:1)], for which the pEC50 was greater than 6.52 and the Emax is greater than 50%.

Take `CC(C)CNCc1cnc(Nc2cccc(Br)c2)cc1C(C)C` [Example 48, (3-Bromo-phenyl)-[5-(isobutylamino-methyl)-4-isopropyl-pyridin-2-yl]-amine, compound withformic acid (1:33)]: the Emax under setting [1] was greater than 50%. Also, under setting [2], the pEC50 was greater than 6.52.

Consider `CC(C)c1cc(Nc2cccc(Cl)c2)ncc1CN1CCCC1` [Example 58, (3-Chloro-phenyl)-(4-isopropyl-5-pyrrolidin-1-ylmethyl-pyridin-2-yl)-amine. dihydrochloride], for which the pEC50 was greater than 6.52 and the Emax is greater than 50%.

With `Cc1cc(Cl)ccc1Nc1cc(C(C)C)c(CNCC2CCC2)cn1` [Example 27, (4-Chloro-2-methyl-phenyl)-{5-[(cyclobutylmethyl-amino)-methyl)-4-isopropyl-pyridin-2-yl}-amine,compound with formic acid (1:1.33)], the pEC50 was 6.00 to 6.52 and the Emax is greater than 50%.

Consider `Clc1cccc(Nc2cc(C3CC3)c(CNC3CCOCC3)cn2)c1` [Example 11, (3-Chlorophenyl)-{4-cyclopropyl-5-[(tetrahydro-pyran-4-ylamino)-methyl]-pyridin-2-yl}-amineacetate], for which the Emax was greater than 50%. Moreover, the pEC50 under setting [2] was 6.00 to 6.52.

As for `CC(C)CNCc1cnc(Nc2ccc(Cl)c(Cl)c2)cc1C(C)C` [Example 47, (3,4-Dichloro-phenyl)-[5-(isobutylamino-methyl)-4-isopropyl-pyridin-2-yl]-amine, compound withformic acid (1:1)], the pEC50 is greater than 6.52 and the Emax was greater than 50%.

As for `CC(C)c1cc(Nc2ccc(F)cc2Cl)ncc1CNCC1CCC1` [Example 24, (2-Chloro-4-fluoro-phenyl)-{5-[(cyclobutylmethyl-amino)-methyl]-4-isopropyl-pyridin-2-yl}-amine,compound with formic acid (1:1.75)], the pEC50 is 6.00 to 6.52 and the Emax is greater than 50%.

As to `CC(C)c1cc(Nc2cc(F)cc(F)c2)ncc1CNCC1CCC1` [Example 21, {5-[(Cyclobutylmethyl-amino)-methyl]-4-isopropyl-pyridin-2-yl}-(3,5-difluoro-phenyl)-amine,compound with formic acid (1:1.3)], the Emax under setting [1] is greater than 50%. Besides, the pEC50 under setting [2] was greater than 6.52.

Regarding `CC(C)c1cc(Nc2ccc(Cl)cc2Cl)ncc1CN1CCSCC1` [Example 61, (2,4-Dichloro-phenyl)-(4-isopropyl-5thiomorpholin-4-ylmethyl-pyridin-2-yl)-amine dihydrochloride], the pEC50 was greater than 6.52 and the Emax is greater than 50%.

For `CC(C)CNCc1cnc(Nc2cccc(C(F)(F)F)c2F)cc1C(C)C` [Example 46, (2-Fluoro-3-trifluoromethyl-phenyl)-5-[(isobutylamino-methyl)-4-isopropyl-pyridin-2-yl]-amine,compound with formic acid (1:1.13)], under setting [1], the Emax was greater than 50%. Besides, under setting [2], the pEC50 is greater than 6.52.

Take `CC(C)c1cc(Nc2cccc(Cl)c2)ncc1CN1CCC(F)(F)CC1` [Example 57, (3-Chloro-phenyl)-[5-(4,4-difluoro-piperidin-1-ylmethyl)-4-isopropylpyridin-2-yl]-amine dihydrochloride]: the pEC50 is greater than 6.52 and the Emax is greater than 50%.

Regarding `CC(C)c1cc(Nc2ccc(F)c(F)c2)ncc1CNCC1CC1` [Example 37, {5-[(Cyclopropylmethyl-amino)-methyl]-4-isopropyl-pyridin-2-yl}-(3,4-difluoro-phenyl)-amine,compound with formic acid (1:1.15)], the pEC50 was 6.00 to 6.52 and the Emax is greater than 50%.

Regarding `Cc1c(Cl)cccc1Nc1cc(C2CC2)c(CNCC2CCC2)cn1` [Example 29, (3-Chloro-2-methyl-phenyl)-{5-[(cyclobutylmethyl-amino)-methyl]-4-cyclopropyl-pyridin-2-yl}-amine,compound with formic acid (1:1.57)], the Emax under setting [1] is greater than 50%. Further, the pEC50 under setting [2] was 6.00 to 6.52.

For the compound `Clc1cccc(Nc2cc(C3CC3)c(CNCC3CC3)cn2)c1` [Example 3, (3-Chlorophenyl)-(4-cyclopropyl-5-[(cyclopropylmethyl-amino)-methyl]-pyridin-2-yl}-amine acetate], the pEC50 was greater than 6.52 and the Emax was greater than 50%.

Take `Fc1ccc(CNCc2cnc(Nc3cccc(Cl)c3)cc2C2CC2)cc1` [Example 52, (3-Chloro-phenyl)-{4-cyclopropyl-5-[(4-fluorobenzylamino)methyl]-pyridin-2-yl}-amine dihydrochloride]: the pEC50 was greater than 6.52 and the Emax was greater than 50%.

Regarding `CC(C)CNCc1cnc(Nc2cccc(Cl)c2)cc1C1CC1` [Example 5, (3-Chlorophenyl)-[4-cyclopropyl-5-(isobutylamino-methyl)-pyridin-2-yl]-amineacetate], the pEC50 is greater than 6.52 and the Emax was greater than 50%.

Consider `Clc1cccc(Nc2cc(C3CC3)c(CNCC3CCC3)cn2)c1` [Example 13, (3-Chloro-phenyl)-{5-[(cyclobutylmethyl-amino)-methyl]-4-cyclopropyl-pyridin-2-yl}-amine], for which the pEC50 is greater than 6.52 and the Emax is greater than 50%.

For `Clc1cccc(Nc2cc(C3CC3)c(CN3CCOCC3)cn2)c1` [Example 4, (3-Chlorophenyl)-(4-cyclopropyl-5-morpholin-4-ylmethyl-pyridin-2-yl)-aminedihydrochloride], the pEC50 was greater than 6.52 and the Emax was greater than 50%.

Take `CC(C)c1cc(Nc2ccc(Cl)cc2Cl)ncc1CNCC1CCC1` [Example 16, {5-[(Cyclobutylmethyl-amino)-methyl]-4-isopropyl-pyridin-2-yl}-(2,4-dichloro-phenyl)-amine,compound with formic acid (1:1)]: the pEC50 was greater than 6.52 and the Emax was greater than 50%.

Regarding `Fc1ccc(CNCc2cnc(Nc3ccc(Cl)cc3Cl)cc2C(F)(F)F)cc1` [Example 54, (2,4-Dichlorophenyl)-{5-[(4-fluoro-benzylamino)-methyl]-4-trifluoromethyl-pyridin-2-yl}-amine], the pEC50 under setting [2] is 6.00 to 6.52.

`Clc1cccc(Nc2cc(C3CC3)c(CNC3CC3)cn2)c1` [Example 2, (3-Chlorophenyl)-(4-cyclopropyl-5-cyclopropylaminomethyl-pyridin-2-yl)-amineacetate]: under setting [1], the Emax is greater than 50%. Moreover, the pEC50 under setting [2] is greater than 6.52.

In the case of `CC(C)c1cc(Nc2cccc(Cl)c2)ncc1CNCC1CC1` [Example 22, (3-Chloro-phenyl)-{5-[(cyclopropylmethyl-amino)-methyl]-4-isopropyl-pyridin-2-yl}-amine, compound with formic acid(1:1.25)], the pEC50 was greater than 6.52 and the Emax was greater than 50%.

Regarding `CC(C)c1cc(Nc2ccc(OC(F)(F)F)cc2Br)ncc1CNCC1CCC1` [Example 26, (2-Bromo-4-trifluoromethoxy-phenyl)-{5-[(cyclobutylmethyl-amino)-methyl]-4-isopropyl-pyridin-2-yl}-amine, compound with formicacid (1:1)], the Emax was greater than 50%. Also, the pEC50 under setting [2] is 6.00 to 6.52.
